Our source for the Kd values is PubChem BioAssay AID1552 (Sanford-Burnham Center for Chemical Genomics, 2009).

Activity calls are given as the source filed them. No rule for the calls is given here.

Chain of Ubiquitin-conjugating enzyme E2 N (Homo sapiens) (P61088 whole entry, looked up): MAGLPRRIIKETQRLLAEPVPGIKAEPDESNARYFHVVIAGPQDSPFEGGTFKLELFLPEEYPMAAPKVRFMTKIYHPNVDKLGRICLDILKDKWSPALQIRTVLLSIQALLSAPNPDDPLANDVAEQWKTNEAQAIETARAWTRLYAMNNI

This test has as its target Ubiquitin-conjugating enzyme E2 N (Homo sapiens) (UniProt P61088). Put plainly: NMR detection of UBE2N ligand binding – biophysical, purified protein (AID 1552). Conditions: NMR binding to purified UBE2N.
In general, Kd refers to the constant that tells how readily two partners part at equilibrium. On to `Cc1cc(=O)cc(C)n1-c1ccccc1N`, for which the Kd was > 4 mM (inactive).
As to `CC(=O)Oc1c(C)cc(O)c2ccccc12`, the Kd was > 4 mM (inactive).
For `O=c1cnnc(NCc2ccc(F)cc2)[nH]1`, the Kd is > 4 mM (inactive).
In the case of `O=C1c2cccc3cc(S(=O)(=O)O)cc(c23)C(=O)N1O`, the Kd was > 4 mM (inactive).
With `O=C1C=CC(=O)N1c1ccc(N2CCOCC2)cc1`, the Kd was > 4 mM (inactive).
Turning to `CNC(=O)c1cccc(NC(=S)NC)c1`, the Kd is > 4 mM (inactive).
On to `Cc1cc(NC(=O)CS(=O)(=O)c2ccccc2)no1`, for which the Kd was > 4 mM (inactive).
On to `CC1(C)CC(=O)c2sc(N)nc2C1`, for which the Kd is > 4 mM (inactive).
With `O=C1C(=O)N(CN2CCN(CCO)CC2)c2ccccc21`, the Kd was > 4 mM (inactive).
Under `COc1cc(/C=C/C(=O)O)ccc1O` stands > 4 mM (inactive); under `O=C(O)c1ccc(-n2ccnc2)cc1`, > 4 mM (inactive).
Under `CC(=O)OCc1cc(=O)n(C)c(=O)n1C` stands > 4 mM (inactive); under `O=C(CSc1ncn[nH]1)c1ccccc1`, > 4 mM (inactive).
Regarding `CC1C[C@H]2CC(=O)[C@H]3CCCN4CCC[C@H]2[C@]34C1` (some centres not stated), the Kd is > 4 mM (inactive).
Under `Cc1c(C(=O)O)cnn1-c1ccccc1` stands > 4 mM (inactive).
Regarding `O=C(O)c1ccnc2ccccc12`, the Kd was > 4 mM (inactive).
As for `Nc1cccc(-n2cccc2)c1`, the Kd is > 4 mM (inactive).
As for `O=C(NC1=NCCS1)c1csc2ccccc12`, the Kd was > 4 mM (inactive).
As to `CCSc1nnc2[nH]c(=O)cc(C)n12`, the Kd is > 4 mM (inactive).
In the case of `O=C(c1ccncc1)N1CCN(C(=O)c2ccncc2)CC1`, the Kd was > 4 mM (inactive).
Under `CC(=O)c1cnc(Nc2nc(C)c3ccccc3n2)nc1C` stands > 4 mM (inactive); under `O=C(c1cccnc1Cl)N1CCOCC1`, > 4 mM (inactive); under `C/C1=C\CCC(=O)C2CC(C)(C)C2CC1` (configuration not stated), > 4 mM (inactive).
Take `CC1(C)CC(=O)c2cnn(-c3nc4ccccc4[nH]3)c2C1`: the Kd is > 4 mM (inactive).
For `NC(=O)CSc1nnc(-c2cccnc2)o1`, the Kd was > 4 mM (inactive).
Under `Nc1ccc(F)cc1F` stands > 4 mM (inactive); under `NC(=O)CC1Nc2cccc3cccc(c23)NC1=O` (configuration not stated), > 4 mM (inactive).
On to `Cc1cc(=O)n2[nH]c(COc3ccccc3)nc2n1`, for which the Kd is > 4 mM (inactive).
`Cc1c(C)n2c(SCC(N)=O)nnc2[nH]c1=O`: the Kd is > 4 mM (inactive).
Take `CCn1cnc2cc(NCc3ccncc3)ccc21`: the Kd is > 4 mM (inactive).
As to `O=C1c2ccccc2C(=O)N1OCc1ccccc1`, the Kd was > 4 mM (inactive).
As for `COc1ccc(-c2nc3nc(C)cc(C)n3n2)cc1`, the Kd is > 4 mM (inactive).
Under `CN1CCN(C2CCSC2)CC1` (configuration not stated) stands > 4 mM (inactive); under `Cn1c(SCC(N)=O)nnc1-c1cccnc1`, > 4 mM (inactive); under `COc1ccc(C(O)c2nccn2C)cc1` (configuration not stated), > 4 mM (inactive).
Under `CNC(=S)N1CCN=C1Nc1nc(C)cc(C)n1` stands > 4 mM (inactive).
For `CN(C)CCNC(CC(=O)Nc1ccccc1)C(=O)O` (configuration not stated), the Kd was > 4 mM (inactive).
Regarding `CC(=O)Oc1cc2c(c(C)c1OC(C)=O)CC=C1[C@@]2(C)CC[C@@]2(C)C3C[C@](C)(C(=O)O)CC[C@]3(C)CC[C@]12C` (some centres not stated), the Kd is > 4 mM (inactive).
On to `COc1ccccc1NC(=O)/C=N/O`, for which the Kd is > 4 mM (inactive).
Next, `Nc1cccc(-n2cnnn2)c1`: > 4 mM (inactive); `CCOC(=O)c1ccc(F)c(F)c1`: > 4 mM (inactive).
For `CCNCC(O)c1ccc([N+](=O)[O-])cc1` (configuration not stated), the Kd was > 4 mM (inactive).
For the molecule `CN1C(=O)N(C)C2NC(=O)NC21` (configuration not stated), the Kd is > 4 mM (inactive).
In the case of `NCc1ccc(-n2cccc2)cc1`, the Kd was > 4 mM (inactive).
In the case of `Cc1ccccc1CSc1nncn1N`, the Kd is > 4 mM (inactive).
With `O=C(O)c1ccc(N2CCCCC2)cc1`, the Kd was > 4 mM (inactive).
Consider `Cc1ccc(C(=O)N2CCC(C(N)=O)CC2)cc1C`, for which the Kd was > 4 mM (inactive).
On to `C/C(O)=c1/sc2cc(C)nc(=N)n2c1=O`, for which the Kd is > 4 mM (inactive).
In the case of `COc1ccccc1-c1nc(=S)[nH][nH]1`, the Kd was > 4 mM (inactive).
`Cc1nnc(NCCN2CCOCC2)[nH]c1=O`: the Kd is > 4 mM (inactive).
Take `COC(=O)CCC(C)[C@H]1CCC2C3C(C[C@H](O)[C@@]21C)[C@@]1(C)CC[C@@H](O)C[C@H]1C[C@H]3O` (some centres not stated): the Kd was > 4 mM (inactive).
With `Cc1cc(=O)[nH]c(N)n1`, the Kd is > 4 mM (inactive).
On to `O=C(CSc1ncnc2ccccc12)NCCCO`, for which the Kd was > 4 mM (inactive).
Next, `CC1(O)CC2C=CC1C2` (configuration not stated): > 4 mM (inactive); `COC(=O)Cc1cc(=O)n(-c2nc3ccccc3s2)[nH]1`: > 4 mM (inactive).
Under `O=C1NC(=Nc2ccc(O)cc2)S/C1=C/c1ccco1` stands > 4 mM (inactive); under `CSc1ccccc1NC(=O)c1cnccn1`, > 4 mM (inactive).
Take `CCCNC(=O)c1cnc2n(c1=O)CCS2`: the Kd was > 4 mM (inactive).
Consider `CC(=O)c1cccc(NC2=NCC(C)(C)S2)c1`, for which the Kd was > 4 mM (inactive).
Next, `CC(=O)Nc1ccc(S(=O)(=O)NC(N)=O)cc1`: > 4 mM (inactive); `COc1ccc2c(=O)c(OC)c(-c3ccccc3)oc2c1`: > 4 mM (inactive); `O=C(O)CSCc1c(F)cccc1Cl`: > 4 mM (inactive).
On to `O[C@H]1C=C2CCN3Cc4cc5c(cc4C(C23)[C@@H]1O)OCO5` (some centres not stated), for which the Kd is > 4 mM (inactive).
On to `CC(O)c1nc2ccccc2[nH]1` (configuration not stated), for which the Kd is > 4 mM (inactive).
Turning to `COc1ncccc1N`, the Kd was > 4 mM (inactive).
In the case of `NCc1ccc(N2CCOCC2)cc1`, the Kd was > 4 mM (inactive).
Take `CC(=O)Nc1nnc(-c2ccccc2S(C)(=O)=O)o1`: the Kd was > 4 mM (inactive).
Under `CC(=O)Nc1cccs1` stands > 4 mM (inactive); under `COc1cccc(NC(=O)c2cccs2)c1`, > 4 mM (inactive); under `O=C(CC1SC(=O)NC1=O)Nc1nccs1` (configuration not stated), > 4 mM (inactive).
As for `COC(=O)c1noc(-c2ccc(OC)cc2)n1`, the Kd was > 4 mM (inactive).
As for `O=C(O)c1cccnc1-c1nc2ccccc2s1`, the Kd was > 4 mM (inactive).
For `COCc1nc(-c2cc(Br)ccc2OC)no1`, the Kd is > 4 mM (inactive).
For `CS(=O)(=O)N1CCN(c2ccccc2F)CC1`, the Kd was > 4 mM (inactive).
In the case of `O=C(Nc1cccnc1)Nc1ccc2c(c1)OCO2`, the Kd is > 4 mM (inactive).
As for `COC(=O)c1cccnc1Oc1ccccc1`, the Kd is > 4 mM (inactive).
Take `c1cncc(C2CCCCN2)c1` (configuration not stated): the Kd was > 4 mM (inactive).
As for `CS(=O)(=O)N/N=C/c1cccs1`, the Kd was > 4 mM (inactive).
Next, `O=C(Nc1cccc(Cl)c1)c1ccncc1`: > 4 mM (inactive).
Take `COC(=O)[C@@H]1OC(=O)C2OC23[C@@]1(C)CCC1[C@]2(C)C(C[C@@H](O)[C@]13C)C(C)(C)[C@H](OC(C)=O)C[C@@H]2OC(C)=O` (some centres not stated): the Kd is > 4 mM (inactive).
Under `OCc1ccccc1O[C@@H]1O[C@H](CO)[C@@H](O)[C@H](O)[C@H]1O` stands > 4 mM (inactive); under `Cn1cnc2c(=S)[nH]c(=O)n(Cc3ccccc3)c21`, > 4 mM (inactive).
Next, `CSc1ccccc1NC(=O)c1ccco1`: > 4 mM (inactive); `O=C(O)c1ccnn1-c1ccccc1`: > 4 mM (inactive).
Under `O=C(O)CCC(=O)c1c[nH]c2ccccc12` stands > 4 mM (inactive); under `Cc1ccc(C)n1-c1ccc(C(=O)N2CCOCC2)cc1`, > 4 mM (inactive); under `COc1cc(-c2coc3cc(O[C@@H]4O[C@H](CO)[C@@H](O)[C@H](O)[C@H]4O)c(OC)c(O)c3c2=O)cc(O)c1OC`, > 4 mM (inactive).
On to `Cc1cc(C(F)(F)F)nn1CC(N)=O`, for which the Kd is > 4 mM (inactive).
Turning to `O=C(NCc1ccccc1F)c1cccs1`, the Kd is > 4 mM (inactive).
Turning to `O=c1[nH]cc(N2CCCCC2)c(=O)[nH]1`, the Kd is > 4 mM (inactive).
On to `O=c1[nH]c2sc3c(c2c2ncnn12)CCCC3`, for which the Kd is > 4 mM (inactive).
With `NC(=O)CCN1C(=O)c2ccccc2C1=O`, the Kd is > 4 mM (inactive).
With `OCc1ccc(N2CCOCC2)nc1`, the Kd was > 4 mM (inactive).
Consider `Cn1nc(-c2cccs2)cc1N`, for which the Kd was > 4 mM (inactive).
As for `CC(C)NS(=O)(=O)c1ccc(N)cc1`, the Kd was > 4 mM (inactive).
`Cc1cccc(N2C(=O)CCC2=O)n1`: the Kd is > 4 mM (inactive).
In the case of `CC(=O)Nc1nc(-c2cccs2)cs1`, the Kd was > 4 mM (inactive).
For `C/C=C/c1ccc2c(c1)OCO2`, the Kd is > 4 mM (inactive).
Next, `CN1CN/C(=N\[N+](=O)[O-])N(c2ccccc2)C1`: > 4 mM (inactive).
On to `C/C(=C\CO)CC[C@H](C)CCC[C@H](C)CCCC(C)C`, for which the Kd is > 4 mM (inactive).
`CC(=O)Nc1ccc(NC(C)=O)c(C(F)(F)F)c1`: the Kd is > 4 mM (inactive).
Take `COC(=O)c1nc(-c2ccccc2)oc1N(C)C`: the Kd was > 4 mM (inactive).
With `CN1CCC=C(C(=O)O)C1`, the Kd is > 4 mM (inactive).
`CC(=O)c1nnc2cc(C)nn2c1C`: the Kd is > 4 mM (inactive).
Take `CC(=O)CC(=O)N1C(O)CC[N+]1(C)C` (configuration not stated): the Kd was > 4 mM (inactive).
On to `NCc1ccc(-c2cccs2)cc1`, for which the Kd is > 4 mM (inactive).
On to `c1ccc2nc3c(nc2c1)CCc1nonc1-3`, for which the Kd is > 4 mM (inactive).
